Source: publication PMC12777568 (Antimicrobial Agents and Chemotherapy, 2025)
Read-outs that look alike come from different tables or passages of the source.

Experiments:
[1] = BIC plasma pharmacokinetics, Phase 1 open-label single-dose DDI study GS-US-380-3909 (B/F/TAF 50/200/25 mg with antacid or mineral supplements); type: in vivo, human; details: both sexes, human, plasma, oral; for AUC(0-t): BIC plasma AUClast; for Tmax: BIC plasma Tmax, median (Q1, Q3)
Procedure: Eligible participants were adult (18–45 years) males and non-pregnant, non-lactating females in good general health at a screening evaluation performed no more than 28 days before the first study dose. […] Full eligibility criteria are available in the supplement. All prescription and over-the-counter medications except vitamins, acetaminophen, ibuprofen, and hormonal contraceptives were not permitted during study participation. Three dosing cohorts were evaluated (Table 1). […] Vitamins and/or other supplements were not permitted on the dosing day. […] Participants received maximum-strength antacid oral suspension (four teaspoons; 20 mL; 1,600 mg aluminum hydroxide/1,600 mg magnesium hydroxide/160 mg simethicone; referred to as “aluminum/magnesium-containing antacid”) on Day 9, calcium carbonate (1,200 mg; 2 × 600 mg tablets) on Day 17, and ferrous fumarate (1 × 324 mg tablet) on Day 25. […] All samples were analyzed within the timeframe determined using frozen stability storage data. […] PK parameters were estimated using Phoenix WinNonlin software (Version 6.4, Pharsight Corporation, Princeton, NJ, USA) using standard noncompartmental analysis methods. […] The estimated 90% CIs were compared to a prespecified lack of DDI boundary of 70%–143%. […] A minimum of 12 evaluable participants in each cohort was calculated to be needed to reject the null hypothesis (i.e., the 90% CI for the GLSM ratio for each PK parameter was outside the prespecified boundary) with ≥90% power.

[2] = system: HIV-1 integrase-DNA complexes; details: cited from earlier work
[3] = design: method as in earlier work; details: cited from earlier work

In the case of `O=C(NCc1c(F)cc(F)cc1F)c1cn2c(c(O)c1=O)C(=O)N1[C@H]3CC[C@H](C3)O[C@@H]1C2` [BIC, bictegravir], the AUC(0-inf) ([1]; BIC plasma AUCinf, mean (%CV), Cohort 3, B/F/TAF alone (fasted), N = 14) is reported as 93700 ng·h/mL, the AUC(0-inf) ([1]; BIC plasma AUCinf, mean (%CV), Cohort 3 fed, B/F/TAF + aluminum/magnesium-containing antacid simultaneous, N = 14) is reported as 50800 ng·h/mL and the AUC(0-inf) ([1]; BIC plasma AUCinf, mean (%CV), Cohort 3 fed, B/F/TAF + calcium carbonate simultaneous, N = 14) is reported as 94800 ng·h/mL. The AUC(0-inf) ([1]; BIC plasma AUCinf, mean (%CV), Cohort 3 fed, B/F/TAF + ferrous fumarate simultaneous, N = 14) was 77300 ng·h/mL, the AUC(0-t) ([1]; mean (%CV), Cohort 1 fasted, B/F/TAF + aluminum/magnesium-containing antacid simultaneous, N = 14) was 26200 ng·h/mL and the AUC(0-t) ([1]; mean (%CV), Cohort 1 fasted, B/F/TAF + calcium carbonate simultaneous, N = 14) was 80400 ng·h/mL. For the same molecule, the AUC(0-t) ([1]; mean (%CV), Cohort 1 fasted, B/F/TAF + ferrous fumarate simultaneous, N = 14) was 43400 ng·h/mL, the AUC(0-t) ([1]; mean (%CV), Cohort 1 fasted, B/F/TAF alone, N = 14) was 117000 ng·h/mL and the AUC(0-t) ([1]; mean (%CV), Cohort 2 fasted, B/F/TAF 2 hours after aluminum/magnesium-containing antacid, N = 13) was 63400 ng·h/mL. The AUC(0-t) ([1]; mean (%CV), Cohort 2 fasted, B/F/TAF 2 hours before aluminum/magnesium-containing antacid, N = 13) was 111000 ng·h/mL, the AUC(0-t) ([1]; mean (%CV), Cohort 2 fasted, B/F/TAF alone, N = 14) was 125000 ng·h/mL and the AUC(0-t) ([1]; mean (%CV), Cohort 3, B/F/TAF alone (fasted), N = 14) was 91200 ng·h/mL. For the same molecule, the AUC(0-t) ([1]; mean (%CV), Cohort 3 fed, B/F/TAF + aluminum/magnesium-containing antacid simultaneous, N = 14) was 49200 ng·h/mL, the AUC(0-t) ([1]; mean (%CV), Cohort 3 fed, B/F/TAF + calcium carbonate simultaneous, N = 14) was 91500 ng·h/mL and the AUC(0-t) ([1]; mean (%CV), Cohort 3 fed, B/F/TAF + ferrous fumarate simultaneous, N = 14) was 74500 ng·h/mL. The concentration at 24 h ([1]; BIC plasma C24, mean (%CV), Cohort 1 fasted, B/F/TAF + aluminum/magnesium-containing antacid simultaneous, N = 14) was 430 ng/mL, the concentration at 24 h ([1]; BIC plasma C24, mean (%CV), Cohort 1 fasted, B/F/TAF + calcium carbonate simultaneous, N = 14) was 1220 ng/mL and the concentration at 24 h ([1]; BIC plasma C24, mean (%CV), Cohort 1 fasted, B/F/TAF + ferrous fumarate simultaneous, N = 14) was 670 ng/mL. The concentration at 24 h ([1]; BIC plasma C24, mean (%CV), Cohort 1 fasted, B/F/TAF alone, N = 14) was 1800 ng/mL, the concentration at 24 h ([1]; BIC plasma C24, mean (%CV), Cohort 2 fasted, B/F/TAF 2 hours after aluminum/magnesium-containing antacid, N = 13) was 990 ng/mL and the concentration at 24 h ([1]; BIC plasma C24, mean (%CV), Cohort 2 fasted, B/F/TAF 2 hours before aluminum/magnesium-containing antacid, N = 13) was 1700 ng/mL. For the same molecule, the concentration at 24 h ([1]; BIC plasma C24, mean (%CV), Cohort 2 fasted, B/F/TAF alone, N = 14) was 2010 ng/mL, the concentration at 24 h ([1]; BIC plasma C24, mean (%CV), Cohort 3, B/F/TAF alone (fasted), N = 14) was 1410 ng/mL and the concentration at 24 h ([1]; BIC plasma C24, mean (%CV), Cohort 3 fed, B/F/TAF + aluminum/magnesium-containing antacid simultaneous, N = 14) was 800 ng/mL. The concentration at 24 h ([1]; BIC plasma C24, mean (%CV), Cohort 3 fed, B/F/TAF + calcium carbonate simultaneous, N = 14) was 1460 ng/mL, the concentration at 24 h ([1]; BIC plasma C24, mean (%CV), Cohort 3 fed, B/F/TAF + ferrous fumarate simultaneous, N = 14) was 1230 ng/mL and the Cmax ([1]; BIC plasma Cmax, mean (%CV), Cohort 1 fasted, B/F/TAF + aluminum/magnesium-containing antacid simultaneous, N = 14) was 1200 ng/mL. It also gave a Cmax ([1]; BIC plasma Cmax, mean (%CV), Cohort 1 fasted, B/F/TAF + ferrous fumarate simultaneous, N = 14) of 1670 ng/mL, a Cmax ([1]; BIC plasma Cmax, mean (%CV), Cohort 2 fasted, B/F/TAF 2 hours after aluminum/magnesium-containing antacid, N = 13) of 2740 ng/mL and a Cmax ([1]; BIC plasma Cmax, mean (%CV), Cohort 3 fed, B/F/TAF + aluminum/magnesium-containing antacid simultaneous, N = 14) of 2450 ng/mL. It also gave a Cmax ([1]; BIC plasma Cmax, mean (%CV), Cohort 3 fed, B/F/TAF + calcium carbonate simultaneous, N = 14) of 4110 ng/mL, a Tmax ([1]; Cohort 1 fasted, B/F/TAF + ferrous fumarate simultaneous, N = 14) of 3.5 h and a Tmax ([1]; Cohort 3 fed, B/F/TAF + aluminum/magnesium-containing antacid simultaneous, N = 14) of 3.5 h. For the same molecule, the Tmax ([1]; Cohort 3 fed, B/F/TAF + calcium carbonate simultaneous, N = 14) was 3.5 h, the Tmax ([1]; Cohort 3 fed, B/F/TAF + ferrous fumarate simultaneous, N = 14) was 4 h and the AUC(0-inf) ([1]; Cohort 1 fasted, B/F/TAF with aluminum/magnesium-containing antacid simultaneous, N = 14, read-out: AUCinf, test GLSM) was 25200 ng·h/mL. For the same molecule, the concentration at 24 h ([1]; Cohort 1 fasted, B/F/TAF with aluminum/magnesium-containing antacid simultaneous, N = 14, read-out: C24, test GLSM) was 380 ng/mL, the Cmax ([1]; Cohort 1 fasted, B/F/TAF with aluminum/magnesium-containing antacid simultaneous, N = 14, read-out: Cmax, test GLSM) was 1100 ng/mL and the AUC(0-inf) ([1]; Cohort 1 fasted, B/F/TAF with calcium carbonate simultaneous, N = 14, read-out: AUCinf, test GLSM) was 79100 ng·h/mL. For the same molecule, the concentration at 24 h ([1]; Cohort 1 fasted, B/F/TAF with calcium carbonate simultaneous, N = 14, read-out: C24, test GLSM) was 1130 ng/mL, the Cmax ([1]; Cohort 1 fasted, B/F/TAF with calcium carbonate simultaneous, N = 14, read-out: Cmax, test GLSM) was 3230 ng/mL and the AUC(0-inf) ([1]; Cohort 1 fasted, B/F/TAF with ferrous fumarate simultaneous, N = 14, read-out: AUCinf, test GLSM) was 44000 ng·h/mL. For the same molecule, the concentration at 24 h ([1]; Cohort 1 fasted, B/F/TAF with ferrous fumarate simultaneous, N = 14, read-out: C24, test GLSM) was 640 ng/mL, the Cmax ([1]; Cohort 1 fasted, B/F/TAF with ferrous fumarate simultaneous, N = 14, read-out: Cmax, test GLSM) was 1610 ng/mL and the AUC(0-inf) ([1]; Cohort 1 fasted, BIC alone (N = 14), read-out: AUCinf, reference GLSM) was 119000 ng·h/mL. The concentration at 24 h ([1]; Cohort 1 fasted, BIC alone (N = 14), read-out: C24, reference GLSM) was 1740 ng/mL, the AUC(0-inf) ([1]; Cohort 2 fasted, B/F/TAF 2 h after aluminum/magnesium-containing antacid, N = 14, read-out: AUCinf, test GLSM) was 61100 ng·h/mL and the concentration at 24 h ([1]; Cohort 2 fasted, B/F/TAF 2 h after aluminum/magnesium-containing antacid, N = 14, read-out: C24, test GLSM) was 900 ng/mL. For the same molecule, the Cmax ([1]; Cohort 2 fasted, B/F/TAF 2 h after aluminum/magnesium-containing antacid, N = 14, read-out: Cmax, test GLSM) was 2430 ng/mL, the AUC(0-inf) ([1]; Cohort 2 fasted, B/F/TAF 2 h before aluminum/magnesium-containing antacid, N = 14, read-out: AUCinf, test GLSM) was 111000 ng·h/mL and the concentration at 24 h ([1]; Cohort 2 fasted, B/F/TAF 2 h before aluminum/magnesium-containing antacid, N = 14, read-out: C24, test GLSM) was 1650 ng/mL. The AUC(0-inf) ([1]; Cohort 2 fasted, BIC alone (N = 14), read-out: AUCinf, reference GLSM) was 128000 ng·h/mL, the concentration at 24 h ([1]; Cohort 2 fasted, BIC alone (N = 14), read-out: C24, reference GLSM) was 1930 ng/mL and the Cmax ([1]; Cohort 2 fasted, BIC alone (N = 14), read-out: Cmax, reference GLSM) was 5840 ng/mL. For the same molecule, the AUC(0-inf) ([1]; Cohort 3, BIC alone (N = 14), fasted, read-out: AUCinf, reference GLSM) was 89900 ng·h/mL, the concentration at 24 h ([1]; Cohort 3, BIC alone (N = 14), fasted, read-out: C24, reference GLSM) was 1350 ng/mL and the AUC(0-inf) ([1]; Cohort 3 fed, B/F/TAF with aluminum/magnesium-containing antacid simultaneous, N = 14, read-out: AUCinf, test GLSM) was 47900 ng·h/mL. The concentration at 24 h ([1]; Cohort 3 fed, B/F/TAF with aluminum/magnesium-containing antacid simultaneous, N = 14, read-out: C24, test GLSM) was 750 ng/mL, the Cmax ([1]; Cohort 3 fed, B/F/TAF with aluminum/magnesium-containing antacid simultaneous, N = 14, read-out: Cmax, test GLSM) was 2340 ng/mL and the AUC(0-inf) ([1]; Cohort 3 fed, B/F/TAF with calcium carbonate simultaneous, N = 14, read-out: AUCinf, test GLSM) was 92900 ng·h/mL. For the same molecule, the concentration at 24 h ([1]; Cohort 3 fed, B/F/TAF with calcium carbonate simultaneous, N = 14, read-out: C24, test GLSM) was 1430 ng/mL, the Cmax ([1]; Cohort 3 fed, B/F/TAF with calcium carbonate simultaneous, N = 14, read-out: Cmax, test GLSM) was 4070 ng/mL and the AUC(0-inf) ([1]; Cohort 3 fed, B/F/TAF with ferrous fumarate simultaneous, N = 14, read-out: AUCinf, test GLSM) was 75400 ng·h/mL. The concentration at 24 h ([1]; Cohort 3 fed, B/F/TAF with ferrous fumarate simultaneous, N = 14, read-out: C24, test GLSM) was 1200 ng/mL, the Cmax ([1]; Cohort 3 fed, B/F/TAF with ferrous fumarate simultaneous, N = 14, read-out: Cmax, test GLSM) was 3410 ng/mL and the dissociation half-life [2] was ~ 163 hours. For the same molecule, the “half-life for BIC (median T1/2)” value [3] was ~ 17 hours.
